The record followed here is article PMC6271131, “Inhibitory Effects of Colocasia esculenta (L.) Schott Constituents on Aldose Reductase” (Molecules, 2014).

The subject of one experiment is rat erythrocyte. The experiment is described as follows: Galactitol accumulation in rat erythrocytes incubated with galactose. The note with it: 30 mM galactose. Format: cell-based. The method, then: Blood sample was collected in heparin containing polypropylene tube from 10-week-old male rats. For sugar and sugar alcohol analysis, erythrocytes from heparinized blood were separated from the plasma and buffy coat by centrifuging at 2000× g for 10 min. The cells were washed thrice with normal saline (0.9% NaCl) at 4 °C. In the final washing, the cells were centrifuged at 2000× g for 10 min to obtain a consistently packed cell preparation. The packed cells (1 mL) were then incubated in a Krebs-Ringer bicarbonate buffer (pH 7.4) containing 30 mM galactose in the presence or absence of samples at 37 °C in 5% CO2 for 3 h. The erythrocytes were washed with cold saline by centrifuging at 2000× g for 10 min, precipitated by adding 6% of cold perchloric acid (3 mL), and centrifuged again at 2000× g for 10 min. The supernatant was neutralized with 2.5 M K2CO3 at 4 °C and used for galactitol determination. HPLC analysis for sugar and sugar alcohol in blood was performed with this supernatant of red blood cell homogenate after being benzoylated.

For experiment [1], the target named is T1, recombinant human aldose reductase (rhAR) (Homo sapiens, UniProt P15121).
T1 construct: purchased Wako Pure Chemical Industries (Osaka, Japan)
The experiment is described as follows: Kinetic analysis of aldose reductase inhibition (Lineweaver-Burk plots). Format: biochemical. The method, then: Reaction mixtures consisted of 0.1 M potassium phosphate, 0.16 mM NADPH, […] of recombinant human aldose reductase (rhAR) with varied concentrations of substrate DL-glyceraldehyde and AR inhibitor in a total volume of 200 µL. Concentrations were ranged from 0.1 to 1 mM for DL-glyceraldehyde, from 0.1 to 1 mM for active compound. Recombinant human aldose reductase activity was assayed spectrophotometrically by measuring the decrease in absorption of NADPH at 340 nm after substrate addition using a Bio Tek Power Wave XS spectrophotometer (Bio Tek Instruments, Winooski, VT, USA).

Another experiment has as its system rat lenses. The experiment is described as follows: Galactitol accumulation in cultured isolated rat lenses (ex vivo). Type of experiment: cell-based. Here is the method:
Lenses isolated from 10-week-old male rats were cultured for 6 days in TC-199 medium that contained 15% fetal bovine serum 100 units/mL penicillin and 0.1 mg/mL streptomycin under sterile conditions in an atmosphere of 5% CO2 and 95% air at 37 °C. Samples were dissolved in dimethyl sulfoxide. The lenses were divided into five groups and cultured in medium containing 5 mM glucose, 30 mM galactose and rosmarinic acid or caffeic acid ethylene ester. Each lens was placed in well containing 1.0 mL of medium. Galactitol was determined by HPLC after its derivatization by reaction with benzoic acid to a fluorescent compound [37].

For experiment [2], the target named is T2, rat lens aldose reductase (rAR) (Rattus norvegicus, UniProt P07943).
T2 construct: The rat lens homogenate was prepared according to the method of Hayman and Kinoshita with some modifications; from tissue; host or cells: lenses of Sprague-Dawley rats (homogenate supernatant)
The experiment is described as follows: Rat lens aldose reductase (rAR) inhibition, DL-glyceraldehyde substrate, NADPH decrease at 340 nm. Format: biochemical. The method, then:
The rat lens homogenate was prepared according to the method of Hayman and Kinoshita with some modifications. Non-cataractous transparent lenses were pooled and homogenate was prepared in 0.1 M phosphate buffer saline (pH 6.2). After centrifugation at 10,000 rpm for 20 min in a refrigerated centrifuge, the supernatant, which was then collected and as the rAR, all procedures were carried out at 4 °C.
Each 1.0 mL cuvette contained equal units of the enzyme, 0.10 M sodium phosphate buffer (pH 6.2), 0.3 mM NADPH, with or without 10 mM of the substrate and an inhibitor [10, 36].

Experiment [3] can be described thus: ABTS^+ radical assay (antioxidant). The settings on record: Table 5. The method, then:
The method of Re et al., [39] was used with slight modifications. ABTS diammonium salt (2 mM) and potassium persulfate (3.5 mM) were mixed, diluted in distilled water and kept in the dark at room temperature for 24 h before use. After addition of ABTS^+ solution to 10 µL of antioxidant compounds were recorded at after 10 min reaction. […] Trolox was used as positive control.

The term Ki denotes a dissociation constant, usually derived from enzyme kinetics or from competition with a known ligand. One may read the inhibition as the relative decrease from the control value, in per cent. A word on the IC50: it is the midpoint of a concentration-inhibition curve. The low end stands for higher potency, the high end for lower potency.

Values after ≈ are worked out from the molar mass of the structure shown.

As for `O=c1cc(-c2ccc(O)c(O)c2)oc2cc(O)c([C@@H]3O[C@H](CO)[C@@H](O)[C@H](O)[C@H]3O)c(O)c12` [Compound 3, isoorientin], in the experiment with rat erythrocyte (5 µg/mL compound, control 86.70 ± 1.61), the “Rat Erythrocyte Galactitol Content” value was found to be 56.18 ± 1.00 µM. In addition, in the experiment on rat erythrocyte (5 µg/mL), the “decrease of galactitol accumulation in rat erythrocyte” value is given as 35.2%. In addition, the type of inhibition entry in experiment [1] (Lineweaver-Burk plots, Km unchanged, Vmax decreased) is recorded as “noncompetitive inhibitors”. The Ki in experiment [1] (from secondary Lineweaver-Burk plots, DL-glyceraldehyde 0.1-1 mM, read-out: inhibitory constant (Ki)) was found to be 5.88 µM. Also, the “Galactitol Content µg/lens Wet Weight (g)” value in the experiment with rat lenses (5 µg/mL compound, 30 mM galactose, 6 days, control 250.47 ± 5.01) is 243.14 ± 4.71 µg/lens Wet Weight (g). Further, the inhibition at 5 µg/mL with rat lenses (Rattus norvegicus, 144 h, 5 µg/mL, 30 mM galactose, 6 days, read-out: inhibition of galactitol accumulation in isolated rat lenses) came to 2.7%; in experiment [2] (Table 2, 5 µg/mL) it was 77.73 ± 0.77%. In the experiment on rat lenses (conclusion statement), the “effect on polyol accumulation in rat lenses” value is “prevented the accumulation of sorbitol in rat lenses”. The IC50 in experiment [2] (IC50 (rAR), isolated constituents, Table 2 experiment) is 1920 nM; in experiment [3], 14.6 ± 1.18 µM. For the same molecule, the inhibition at 0.5 µg/mL in experiment [2] (Table 2, 0.5 µg/mL, read-out: Inhibition (%) of rAR) was 37.23 ± 0.37%. Further, in experiment [2] (Table 2, 1 µg/mL, read-out: Inhibition (%) of rAR), the inhibition at 1 µg/mL was determined as 57.6 ± 0.58%. The “IC50 (ABTS^+)” value in experiment [3] came to 6.53 ± 0.53 µg/mL (≈ 14.6 µM). Moreover, the “Inhibition (%) of ABTS^+” value is listed as 17.87 ± 3.08% in experiment [3] (1.67 µg/mL), 31.69 ± 4.94% in experiment [3] (3.33 µg/mL) and 60.92 ± 2.81% in experiment [3] (8.33 µg/mL).
